From a melting point compilation (Tetko et al.; mined from patent text by program, amines drawn as free bases though some values may be those of a salt)

| melting point [°C] | Compound |
| --- | --- |
| 109 to 110 | O=c1c2cnc(N3CCCCC3)nc2sn1CCc1ccccn1 |
| 151 to 152 | CNC(=O)C(Cc1ccc(OCCc2nc(-c3ccccc3)oc2C)cc1)C(=O)OC (stereo unspecified) |
| 160 to 163 | CCOC(=O)c1ccc(NC(=O)c2cc(C)no2)cc1 |
| 125 to 127 | O=c1cc(-c2ccsc2)c2ccc(CCl)cc2o1 |
| 147 to 149 | NC(=O)c1cc(-n2cccn2)ccc1N |
| 141 | CCc1cc2c(NC(C)c3ccccc3)ncnc2s1 (stereo unspecified) |
| 119 to 120 | COCCOc1cc(N)c(Cl)cc1C(=O)O |
| 105 | CCCCCSc1cccc(-c2nc(=O)c3ccccc3s2)n1 |
| 163 to 166 | CC(=O)c1cc(Cl)c(O)c2ncccc12 |
| 178 to 179 | COC(=O)c1ccnc(Nc2cc(OC)cc(C(F)(F)F)c2)c1 |
| 260 to 265 | CCc1ccc(-c2ccc3c(c2)C=C(C(=O)O)CCS3(=O)=O)cc1 |
| 145 to 146 | CCOC(=O)c1cc(OCc2ccccc2)ccc1OCC(F)(F)F |
| 144 to 146 | COc1cccc(C2Cc3ccccc3C2=O)c1 (stereo unspecified) |
| 132 to 133 | CC(C)c1nn(-c2ccc(C(F)(F)F)cn2)cc1CCCOc1ccccc1CC(=O)O |
| 128 to 132 | O=Cc1c2ccccc2cc2oc3ccccc3c12 |
| 171 to 173 | O=C(NNC(=O)c1ccccc1C(F)(F)F)c1ccccc1F |
| 122 to 124 | O=C(O)C1(COc2ccc(Br)cc2)COC1 |
| 207 to 208 | CC(C)n1nc(-c2sc(NC(=O)c3cc(C(F)(F)F)cc(C(F)(F)F)c3)nc2-c2ccccc2)ccc1=O |
| 123 to 125 | COc1ccc2cccc(C(C#N)O[Si](C)(C)C)c2c1 (stereo unspecified) |
| 195 to 196 | CCn1cc(C(=O)O)c(=O)c2cc(F)c(-c3ccnc(CNC(=O)OCc4ccccc4)n3)c(F)c21 |
| 162 to 163 | O=C1c2cc3nnn(CC4(c5cccc(F)c5)CC4)c(=O)c3cc2OC2CCCN12 (stereo unspecified) |
| 85 to 89 | CCn1c(-c2ccc(-n3ccnc3)cc2)cnc1[C@H](Cc1ccccn1)N(C=O)c1cc2cc(C(F)(F)F)ccc2o1 |
| 218 to 220 | NC(=O)NN=Cc1ccc(Oc2ccc3c(c2)CCC3)cc1 |
| 242 to 245 | CC(c1oc2ccccc2c(=O)c1-c1cccc(F)c1)n1nc(-c2cc3ccccc3s2)c2c(N)ncnc21 (stereo unspecified) |
| 208 to 210 | COC(=O)c1sc2ccc([N+](=O)[O-])cc2c1N |

| melting point [°C] | Compound |
| --- | --- |
| 145 to 147 | CCC(=N)c1c(O)cc(-c2ccccc2)n(C)c1=O |
| 114 to 115 | Cc1sc(S(C)(=O)=O)nc1-c1ccccc1 |
| 145 to 147 | Nc1ncnc2c1c(-c1ccc(Oc3ccccc3)cc1)cn2CC(=O)NCCOCCO |
| 156 | Cc1nc(-c2ccc(C(F)(F)F)cc2)oc1COc1ccc(OCc2nn[nH]n2)cc1 |
| 124 to 125 | CCn1cc(-c2ccccc2)c(=O)c(-c2ccccc2)n1 |
| 92 to 94 | COc1ccccc1N1CCN(CCNc2ccccc2C(C)=O)CC1 |
| 220 | O=C(O)CCc1cc2c(Cl)c(Cl)ccc2n1S(=O)(=O)c1ccccc1 |
| 244 | CC(C)C(c1ccc(CC(N)=O)cc1)n1ccnc1 (stereo unspecified) |
| 80 to 82 | CCOCC1OC(n2cnc3c(NCc4cccc(I)c4)nc(Cl)nc32)C(O)C1O (stereo unspecified) |
| 130 to 131 | CCCN(c1cccc2cc(-c3nccs3)[nH]c12)S(=O)(=O)c1cccs1 |
| 107 to 109 | S=C(Nc1ccccc1)Nc1ncccc1OCc1ccccc1 |
| 104 to 105 | COc1ccc(CNc2c([N+](=O)[O-])cc(Br)c3ccccc23)c(OC)c1 |
| 101 to 103 | Cc1ncncc1C(=O)Nc1ccc(-n2nc(C(F)(F)F)cc2C2CC2)c(F)c1 |
| 98 to 100 | CCN1CC(=O)N(c2cc(F)ccc2C)C1=S |
| 124 to 128 | Cc1c(CCNC(=O)OC(C)(C)C)c2cc(S(=O)(=O)c3ccc(C(F)(F)F)cc3)ccc2n1C |
| 245 to 246 | CN(C)CCn1c(=O)c2cc(N)ccc2c2cnc3cc4c(cc3c21)OCO4 |
| 79 to 81 | COC(=O)C(=O)c1ccc(OCCOc2ccccc2)cc1 |
| 192 | CCCC(CC(=O)Nc1cc(C(N)=O)ccc1C(C)(C)C)c1ccc(OC)cc1OC (stereo unspecified) |
| 160 to 161 | COc1ccc(NC(=O)c2cc(OC)c(OC)c(OC)c2)cc1 |
| 130 | CCOc1ccc(F)cc1C(=O)c1sc2ncccc2c1N |
| 125 to 127 | C=C1c2ccc(OC)cc2CC(=NO)c2ccccc21 |
| 140 to 142 | O=[N+]([O-])c1cc(Cl)c(Oc2ccccc2)cc1NCc1cccc(C(F)(F)F)c1 |
| 113 to 115 | CSC(C(=O)c1cc(-c2ccccc2)on1)N1CCCCC1 (stereo unspecified) |
| 183 to 185 | CS(=O)(=O)c1ccc(-c2cnn(-c3cccc(Cl)c3)c(=O)c2Cc2ccc(F)cc2)cc1 |
| 153 to 154 | Cc1nc(N2CCN(Cc3ccc(C(F)(F)F)cc3)C2=O)sc1CO |

Second part, the compound before the results:

| Compound | melting point [°C] |
| --- | --- |
| COCCCOc1cc(CC(CC2C(OC(=O)OC(C)(C)C)CC(C(C)(C)O)C(=O)N2C(=O)OC(C)(C)C)C(C)C)ccc1OC (stereo unspecified) | 118 to 119 |
| COC(=O)C(=CC(c1ccccc1)c1ccccc1)C(=O)OC | 120 to 122 |
| Cc1ccc(-c2ccccc2S(N)(=O)=O)cc1 | 122 |
| CC1(CS)C(=O)N2CCCC(C(=O)O)N2C1=O (stereo unspecified) | 209 to 211 |
| Cc1ccc(S(=O)(=O)NN)cc1 | 110 |
| CC1CC2C(=CCC3(C)C2CCC3(O)C(=O)CO)C2(C)C=CC(=O)C=C12 (stereo unspecified) | 204 to 206 |
| O=c1oc(=O)n(CC2CC2)c2ccccc12 | 118 to 121 |
| Cc1nc2ccc3c(c2o1)OC(CN1C2CCC1CC(O)(c1ccc4ccccc4c1)C2)CO3 (stereo unspecified) | 192 to 195 |
| COC(=O)CCn1c(=O)n2n(c1=O)C(C(=O)O)C=CC2 (stereo unspecified) | 150 to 153 |
| COc1ccc(C=O)c(O)c1O | 116 to 117 |
| c1ccc2c(c1)Cn1ccnc1CN2 | 164 to 170 |
| CC1CC=NN1C(=O)c1cnccn1 (stereo unspecified) | 77 to 79 |
| CCC/C=C/C(=O)NC(=O)OC(C)(C)C | 71 to 72 |
| Cc1cc(C2=NOC(c3cc(Cl)cc(Cl)c3)(C(F)(F)F)C2)ccc1C(=O)Nc1ncc(Cl)cn1 (stereo unspecified) | 137 to 141 |
| O=C1CCc2c(F)cc(Cl)cc21 | 105 to 107 |
| CCSc1nc(N2CCNCC2)nc2cccnc12 | 98 to 101 |
| COc1cc(C=O)nnc1OC | 179 to 181 |
| COc1ccc(-n2nc(CC(C(=O)N(C)O)c3ccc(Cl)cc3)cc2-c2ccc(Cl)cc2)cc1 (stereo unspecified) | 113 to 117 |
| CCCC1C(O)=CC(=O)N1c1ccc(C#N)c(Cl)c1 (stereo unspecified) | 156 to 158 |

| Compound | melting point [°C] |
| --- | --- |
| O=C(OCc1ccccc1)[C@H](Cc1ccccc1)NC(=O)N1CCOCC1 | 85 to 87 |
| Cc1cc(/C=C/C(=O)O)c(C)c([N+](=O)[O-])c1 | 228 |
| CS(=O)(=O)c1ccc(-n2nc(C=O)cc2-c2ccccc2)cc1 | 133 to 136 |
| NS(=O)c1ncnc2c1ncn2C1OC(CO)C(O)C1O (stereo unspecified) | > 120 |
| CNC(=O)CC=C(CC(C)C)C(=O)O | 120 to 122 |
| CCCCCCCCCCCCCC(=O)Nc1ccc(Cl)c(NC(=CC(=O)OCC)OCC)c1 | 115 to 118 |
| Cc1sc(NC(=O)OC(C)(C)C)c(NC(=O)OC(C)(C)C)c1C#N | > 300 |
| Nn1nc(-c2ccc(Cl)cc2)cc1OCCN1CCCCC1 | 119 |
| CCOC(=O)C1CC2CC(=O)CCC2CN1C(=O)OC (stereo unspecified) | 79 to 80 |
| O[C@H]1c2cc3ccccc3cc2[C@H](O)c2cc3ccccc3cc21 | 235 |
| Cc1csc(C)c1NCc1nnc(S)n1C | 184 to 187 |
| Cc1cc(C)c(Nc2nc(C)ncc2S(=O)(=O)c2ccc(NCc3ccccc3)cc2)c(C)c1 | 200 to 202 |
| COC(=O)c1ccc(C#CC#C[Si](C)(C)C)cc1 | 67 to 68 |
| Fc1ccc(-c2ncn(C3CCNCC3)c2-c2ccnc(Oc3ccc(OCc4ccccc4)cc3)n2)cc1 | 178 to 179 |
| CC(C)(C)P1(=S)CCC1 | 120 to 121 |
| Cc1nc(-c2ccc(Cl)cc2)nn1CCC=O | 108 to 109 |
| CC(C)(C)OC(=O)NCc1ccc(CN2CCC(c3ccccc3)CC2)cc1 | 73 to 74 |
| CC(C(=O)O)c1ccc2ocnc2c1 (stereo unspecified) | 126 to 128 |
| C=C(C)C(=O)OCCC#Cc1ccc(-c2ccc(OC(=O)C(=C)C)cc2)cc1 | 80 |

| Compound | melting point [°C] |
| --- | --- |
| COc1ccc2nc(C)n(-c3ccccc3)c2n1 | 114 to 116 |
| CCN(CC)CCNC(=O)c1cc(I)cc2c(=O)cc[nH]c12 | 141 to 143 |
| Cc1ccnc(O)c1C#N | 230 to 232 |
| COc1cccc(CCc2cc(C(C)(C)C)c(O)c(C(C)(C)C)c2)c1NC(=O)NC1CCN(Cc2ccccc2)CC1 | 184 to 185 |
| O=CNc1nc(C(=NOC(=O)C(Cl)Cl)C(=O)O)ns1 | 123 |
| CC(=O)SCC(CC(C)C)C(=O)O (stereo unspecified) | 42 to 47 |
| O=C=NCc1cccnc1 | 141 to 146 |
| O=C(CSc1ccccn1)C12CC3CC(CC(C3)C1)C2 | 60 to 61 |
| O=c1[nH]c2ccccc2cc1-c1nnn[nH]1 | 301 to 303 |
| C[C@@H]1O[C@](/C=C/C2CC2)(C(F)(F)F)c2c(ccc(F)c2F)NC1=O (relative stereo) | 192 to 193 |
| N#CN1CCC(c2nn(-c3ccccc3)c3ccccc23)CC1 | 124 to 125 |
| CCOC(=O)C(=NOC)c1nc(Cl)cc(NC=O)n1 | 116 to 119 |
| O=C(COc1ccccc1)NC(Cc1ccccc1)C(=O)NNc1ccccc1 (stereo unspecified) | 172 to 175 |
| COC(=O)c1[nH]c2c(C)ccc(Cl)c2c1C(C)=O | 167 to 168 |
| O=C(c1c[nH]c2ncc(Br)nc12)C12CC3CC(CC(C3)C1)C2 | 279 to 280 |
| CC(C)(C)S(=O)c1cccc(F)c1C(=O)NCCCl (stereo unspecified) | 80 to 90 |
| N#Cc1cc(-c2ccc(Cl)s2)[nH]c1Cl | > 200 |
| ClCc1cccc2cc(-c3ccccc3)oc12 | 72 to 73 |
